Columns and labels:
[1] = test system: patients affected by idiopathic early Parkinson's disease; test: Phase II dose finding, double-blind, placebo controlled 12-week study: efficacy (UPDRS section III responder rate, CGI); assay type: in vivo, human; conditions: for Non Responders, % / Responders, % / Responder rate (improvement of at least 30% in UPDRS section III): final visit; for Responder rate at final visit, %: 12 weeks, ITT cohort, versus placebo 21.4%
Excerpt: Mode of administration was oral, once daily; and duration of treatment was 12 weeks. The primary efficacy variable in this study was the proportion of patients considered to have achieved a response defined as an improvement of at least 30% in the unified Parkinson's disease ratings scale (UPDRS) section III score between baseline (Visit 2) and the end of the study (Visit 9 or early study termination).
The intent-to-treat (ITT) cohort was defined as all randomized patients who received at least one dose of study medication and for whom at least one UPDRS section III assessment after treatment was available.
The analysis based on the ITT Cohort was considered a primary analysis and was performed for all parameters except safety parameters.
The per-protocol (PP) cohort was defined as all patients who completed the study without major protocol violations. Minor violations not leading to exclusion from the PP cohort were defined during a blind review meeting after data cleaning. Drop-outs due to lack of efficacy and due to adverse events were not excluded from the PP cohort.
The primary efficacy variable was the percentage of patients with an improvement of at least 30% in the UPDRS section III score between baseline (Visit 2) and the end of the study (Visit 9 or early study termination). Comparison between the treatment groups was performed in the ITT analysis cohort (primary analysis) using a logistic regression model taking into account UPDRS section III score at baseline, the patient's treatment history (de-novo, single dopamine agonist alone, single dopamine agonists with a prior Parkinson's disease treatment) and the country.
The percentage of patients with an improvement of at least 30% in the UPDRS section III score at Visits 5 and 7 was analyzed using the same methods as for the primary efficacy variable.

healthy volunteers [2] = conditions: 71 healthy volunteers; single doses of 10 mg/kg or 7 days of repeated doses of 5 mg/kg/day; cited from earlier work
rodents given MPTP = conditions: cited from earlier work
[3] = test system: animal model of wearing off; conditions: response diminished after 28 days continuous L-dopa treatment; cited from earlier work
primates = conditions: after 12 week daily administration; cited from earlier work
MAO-B = conditions: cited from earlier work
[4] = pre-clinical studies; cited from earlier work
healthy volunteers [5] = conditions: in vivo; cited from earlier work
[6] = test system: patients affected by idiopathic early Parkinson's disease; test: Phase II dose finding, double-blind, placebo controlled 12-week study: safety (adverse events, vital signs, ECG, laboratory); conditions: for related adverse events: placebo 25.0%; for percentage of patients with adverse events: placebo 50.0%
Description: Safety was monitored by adverse events, vital signs, 12-lead ECG and clinical laboratory variables.
Patients were assigned to the study treatment group as randomized.
The analyses based on the safety cohort were performed for the safety parameters, demographic data and the most important baseline characteristics which were defined in the analysis plan.
Incidences of adverse events were calculated overall, by body system and by preferred term. Vital sign measurements at baseline (Visit 2) were compared to further visits using the Kruskal-Wallis test. All other safety variables were analysed descriptively.

[7] = De Novo subgroup (N = 66), Safinamide 0.5 mg/kg
[8] = De Novo subgroup (N = 66), Safinamide 1.0 mg/kg

Q: For `C[C@H](NCc1ccc(OCc2cccc(F)c2)cc1)C(N)=O` [Safinamide, (+)-(S)-2-[[p-[(m-fluorobenzyl)oxy]-benzyl]amino]propionamide], which “Non Responders, %” value [1, 7] is on record?
A: Its value is 77.3%.

Q: What about the “Responders, %” value [1, 7] of the same molecule?
A: The value was 22.7%.

Q: What about the “Non Responders, %” value [1, 8] of the same molecule?
A: Its value is 77.3%.

Q: What about the “Responders, %” value [1, 8] of the same molecule?
A: The value was 22.7%.

Q: What about the “Responder rate at final visit, %” value ([1]; Safinamide 0.5 mg/kg oral once daily, group N = 55, p 0.132) of the same molecule?
A: Its value is 30.9%.

Q: And the “Responder rate at final visit, %” value ([1]; Safinamide 1.0 mg/kg oral once daily, group N = 56, p 0.016)?
A: The value was 37.5%.

Q: What about the “Non Responders, %” value ([1]; Single DA subgroup (N = 101), Safinamide 0.5 mg/kg add-on) of the same molecule?
A: Its value is 63.6%.

Q: And the “Non Responders, %” value ([1]; Single DA subgroup (N = 101), Safinamide 1.0 mg/kg add-on)?
A: Its value is 52.9%.

Q: What about the “Responders, %” value ([1]; Single DA subgroup (N = 101; stable dopamine agonist treatment), Safinamide 0.5 mg/kg add-on, placebo 20.6%) of the same molecule?
A: Its value is 36.4%.

Q: What about the “Responders, %” value ([1]; Single DA subgroup (N = 101; stable dopamine agonist treatment), Safinamide 1.0 mg/kg add-on, placebo 20.6%, P = 0.024) of the same molecule?
A: The value was 47.1%.

Q: What about the “Responder rate (improvement of at least 30% in UPDRS section III)” value ([1]; patients who received a single dopamine agonist alone, 0.5 mg safinamide, placebo 25.0%) of the same molecule?
A: The value was 33.3%.

Q: What about the “Responder rate (improvement of at least 30% in UPDRS section III)” value ([1]; patients who received a single dopamine agonist alone, 1.0 mg safinamide, placebo 25.0%) of the same molecule?
A: Its value is 50.0%.

Q: What about the “Responder rate (improvement of at least 30% in UPDRS section III)” value ([1]; patients with a dopamine agonist with a prior Parkinson's disease treatment, 0.5 mg safinamide, placebo 14.3%) of the same molecule?
A: Its value is 40.0%.

Q: And the “Responder rate (improvement of at least 30% in UPDRS section III)” value ([1]; patients with a dopamine agonist with a prior Parkinson's disease treatment, 1.0 mg safinamide, placebo 14.3%)?
A: The value was 43.8%.

Q: What about the “changes in CGI part I between baseline (Visit 2) and Visit 6” value ([1]; safinamide 0.5 mg/kg group versus other groups, p=0.049, Fisher's exact test) of the same molecule?
A: The value was “better outcome”.

Q: And the “average improvement of patients” value ([1]; safinamide added to a stabilized dose of a variety of dopamine agonists)?
A: Its value is 27.8%.

Q: What about the “average improvement of patients” value ([1]; safinamide administered alone) of the same molecule?
A: Its value is 6.9%.

Q: What about the side effects (healthy volunteers [2]) of the same molecule?
A: The side effects was “did not produce any clinically relevant side effect”.

Q: And the nigral neuronal death (rodents given MPTP; given 4 h after the toxin (MPTP) administration)?
A: Its nigral neuronal death is “capable of preventing nigral neuronal death”.

Q: And the neostriatal dopamine depletion (rodents given MPTP; given prior to the administration of MPTP)?
A: Its neostriatal dopamine depletion is “prevented neostriatal dopamine depletion”.

Q: And the “motor effect in response to L-dopa” value [3]?
A: Its value is “restores the efficacy and duration of the motor effect”.

Q: What about the neostriatal dopamine (primates) of the same molecule?
A: The neostriatal dopamine was “significant increase of neostriatal dopamine with increased turnover”.

Q: What about the “inhibition of MAO-B activity” value (MAO-B) of the same molecule?
A: The value was “potent, reversible inhibitor”.

Q: What about the anticonvulsant activity [4] of the same molecule?
A: Its anticonvulsant activity is “broad spectrum of anticonvulsant activity”.

Q: And the “amount of i.v. tyramine to raise BP by 30 mm Hg, compared to placebo (cheese effect)” value (healthy volunteers [5])?
A: Its value is “equal or greater amount of i.v. tyramine was required”.

Q: What about the “overall safety (other vital signs, ECG recordings, laboratory parameters)” value ([6]; 0.5 and 1.0 mg/kg, 12 weeks) of the same molecule?
A: Its value is “no safety concerns were raised”.

Q: And the “mean heart rate, change from baseline to the final visit” value ([6]; other treatment groups (safinamide 0.5 mg/kg, placebo))?
A: Its value is “a decrease was observed”.

Q: And the “tremor aggravated (nervous system disorders, most frequent adverse event)” value ([6]; safinamide 0.5 mg/kg group)?
A: Its value is 3.6 % of patients.

Q: What about the “patients who experienced serious adverse events” value ([6]; safinamide 0.5 mg/kg group (atrial fibrillation, pregnancy), unlikely related or not related) of the same molecule?
A: Its value is “Two”.

Q: What about the related adverse events ([6]; safinamide 0.5 mg/kg group) of the same molecule?
A: The related adverse events was 12.5 % of patients.

Q: What about the “percentage of patients with adverse events” value ([6]; safinamide 0.5 mg/kg group) of the same molecule?
A: The value was 37.5 % of patients.

Q: And the “nausea (gastrointestinal system disorders, most frequent adverse event)” value ([6]; safinamide 1.0 mg/kg group)?
A: Its value is 3.6 % of patients.

Q: What about the “patients who experienced serious adverse events” value ([6]; safinamide 1.0 mg/kg group (myasthenia gravis), not related) of the same molecule?
A: The value was “one”.

Q: What about the “mean heart rate, change from baseline to the final visit” value ([6]; safinamide 1.0 mg/kg group, p=0.037, Kruskal-Wallis test) of the same molecule?
A: The value was “increased”.

Q: What about the related adverse events ([6]; safinamide 1.0 mg/kg group) of the same molecule?
A: Its related adverse events is 10.7 % of patients.

Q: And the “percentage of patients with adverse events” value ([6]; safinamide 1.0 mg/kg group)?
A: The value was 32.1 % of patients.

Q: What about the deaths ([6]; whole study, 0.5 and 1.0 mg/kg groups) of the same molecule?
A: Its deaths is “No deaths were reported”.

Source: patent publication US8901176B2, “Methods for treatment of Parkinson's disease” (Newron Pharmaceuticals, S.P.A., priority 2003, dated 2014)
